Assay results: patent US20030171377A1, “Antidiabetic agents” (priority 2001, published 2003)
pEC50: −log10 of the molar value.

How the values were obtained:
[1] = system: endogenous nuclear receptors in CV-1 cells; test: CV-1 Native Receptors Transcription Assay (MKNRCV1), Test C; assay type: cell-based, African green monkey; details: for MKNRCV1 % BRL @ 25 μM / MKNRCV1 % BRL @ 5 μM: percent activity of BRL 49653; for MKNRCV1 % BRL @ 5 μM: 5 μM (stated in the cell); for pEC50: Chlorocebus sabaeus, CV-1 cells, 48 hours, unit inferred
3T3-L1 preadipocytes = test: 3T3-L1 Adipocyte Differentiation Assay (ADPDIFF), Test A; assay type: cell-based; details: BODIPY lipid fluorescence, reported as % of BRL 49653 at 5 μM
Experimental: Cells are replenished with FBS containing media on day 5 of post-drug treatment and incubated for additional 4-6 days. Cells are stained with BODIPY a fluorescent lipophilic stain to quantitate the lipid content of the cells. The assay is optimized for a 96-well plate format. Approximately after 10 days of post-drug treatment, cells are fixed in 3% formalin solution for 15 min followed by staining with BODIPY (80 μg/ml) for 20 min at room temperature. The plate is then put through the CYTOFLUOR instrument to measure the fluorescence of BODIPY (excitation=485/20; emission=530/25).

[2] = system: CV-1 cells (FATP promoter luciferase reporter, 300 nM BRL); test: ANTCV1 Antagonist Transcription Assay, Test B; assay type: cell-based, African green monkey; details: Chlorocebus sabaeus, 25 μM test compound with 300 nM BRL, 48 hrs, % BRL inhibition, read-out: ANTCV1 INHIB @ 25 μM

Row | pEC50 [1] | SMILES | MKNRCV1 % BRL @ 25 μM [1] [% BRL] | ADPDIFF % BRL @ 5 μM (3T3-L1 preadipocytes) [% BRL] | inhibition at 25 µM [2] [%] | MKNRCV1 % BRL @ 5 μM [1]
1 |  | Cc1oc(-c2ccccc2)nc1CCCc1ccc(CC(C(=O)O)c2ccccc2)cc1 (centres unmarked) | 0.1122 |  |  | 
2 |  | CC(=O)c1cccn1[C@@H](Cc1ccc(OCc2ccccc2F)cc1)C(=O)O | 25 | 3 | -40 | 
3 | 5.57 | Cc1oc(-c2ccccc2)nc1CC#Cc1ccc(CC(C(=O)O)c2ccc(-c3ccccc3)cc2)cc1 (centres unmarked) |  |  | -21 | 86 @ 5 μM % BRL
4 |  | COC(=O)[C@H](Cc1ccc(/C=C/CN2CCC(c3ccccc3)CC2)cc1)n1cccc1 | 47 | 32 | 25 | 
5 |  | Cc1oc(-c2ccccc2)nc1CCOc1ccc(CC(C(=O)O)c2nc(-c3ccccc3)oc2C)cc1 (centres unmarked) [drawing 261] |  |  | 18 | 110 @ 5 μM % BRL
6 | 6.15 | COC(=O)[C@H](Cc1ccc(/C=C/CN(C)c2ccccc2)cc1)n1cccc1 | 96 | 110 | 2 | 
7 | 6.00 | Cc1cc(OCCc2nc(-c3ccccc3)oc2C)ccc1CC(C(=O)O)c1ccccc1 (centres unmarked) |  |  |  | 
8 |  | O=C(O)[C@H](Cc1ccc(OCc2ccccc2F)cc1)n1cccc1C(=O)C(F)(F)F | 18 | 14 | 28 | 
9 |  | Cc1oc(-c2ccccc2)nc1CCOc1ccc([C@@H](C(=O)O)n2cccc2C(=O)c2ccccc2)cc1 | 58 |  | -5 | 39 % BRL
10 |  | Cc1oc(-c2ccccc2)nc1CCC(=O)c1ccc(CC(C(=O)O)n2cccc2)cc1 (centres unmarked) [drawing 276] |  | 3 |  | 
11 |  | CN(CCCc1ccc(C[C@@H](C(=O)O)n2cccc2)cc1)c1ccccn1 | 64 | 113 |  | 
12 |  | Cc1cc(-c2cc(O)c(Sc3cccc(C(=O)O)c3)oc2=O)ccc1OCc1ccccc1 |  |  | -29 | 26 @ 5 μM % BRL
13 | 5.44 | Cc1oc(-c2ccccc2)nc1CCOc1ccc([C@@H](C(=O)O)n2cccc2)cc1 | 57 |  | 39 | 47 % BRL
14 |  | Cc1oc(-c2ccccc2)nc1CC#Cc1ccc(CC(C(=O)O)c2cccc(-c3ccccc3)c2)cc1 (centres unmarked) |  |  | -3 | 48 @ 5 μM % BRL
15 | 5.89 | Cc1oc(-c2ccccc2)nc1CCOc1ccc(CC[C@@H](C(=O)O)n2cccc2)cc1 |  |  | 62 | 82 @ 5 μM % BRL
16 | 4.47 | Cc1oc(-c2ccccc2)nc1CC#Cc1ccc(CC(C(=O)O)c2cccnc2)cc1 (centres unmarked) |  |  | -15 | 49 @ 5 μM % BRL
17 |  | Cc1oc(-c2ccccc2)nc1CCOc1ccc(C[C@@H](C(=O)O)n2cccc2)cc1 |  |  |  | 83 @ 5 μM % BRL
18 |  | Cc1oc(-c2ccccc2)nc1CCOc1ccc(CC(C(=O)O)c2ccccc2)cn1 (centres unmarked) [drawing 309] |  |  | -58 | 75 @ 5 μM % BRL
19 | 5.92 | Cc1oc(-c2ccccc2)nc1CCOc1ccc(CC(C(=O)O)c2ccccc2)cn1 (centres unmarked) [drawing 262] |  |  |  | 
20 |  | Cc1oc(-c2ccccc2)nc1CCOc1ccc(C[C@H](C(=O)O)n2cccc2)cc1 |  | 96 |  | 87 @ 5 μM % BRL
21 |  | Cc1ccc(C)n1[C@@H](Cc1ccc(OCc2ccccc2F)cc1)C(=O)O | 34 | 2 |  | 
22 | 5.77 | CN(C/C=C/c1ccc(C[C@@H](C(=O)O)n2cccc2)cc1)c1ccccc1 | 79 |  | -29 | 
23 |  | Cc1oc(-c2ccccc2)nc1CCNc1ccc(C[C@@H](C(=O)O)n2cccc2)cc1 | 157 |  |  | 
24 |  | Cc1nc(-c2ccc(C(F)(F)F)cc2)sc1CSc1ccc(OCC(=O)O)cc1 | 70 |  | -58 | 
25 |  | Cc1oc(-c2ccccc2)nc1C/C=C/c1ccc(C[C@@H](C(=O)O)n2cccc2)cc1 | 94 | 76 |  | 
